We go through 5 molecules from patent publication US20250084039A1, “4-SUBSTITUTED AMINOISOQUINOLINE DERIVATIVES” (Purdue Research Foundation, priority 2016, published 2025).

As a reminder, the Kd is the free concentration of one partner at which half of the binding sites on the other are occupied at equilibrium, for simple one-to-one binding. Lower therefore signals a tighter complex. For orientation: IC50 means the concentration at which inhibition is half-maximal. A high value points to a need for much substance.

Bounds are passed on as bounds.

One experiment deals with FLT3 (ITD, F691L) (Homo sapiens, UniProt P36888, F691L/ITD). The experiment in a line: DiscoverX Kd Elect binding.
In another experiment the target is BLK (Homo sapiens (Human), UniProt P51451). The experiment in a line: DiscoverX Kd Elect binding. As for the experimental part:
(§1) HCK is expressed more in human primary leukemic stem cells than in human normal hematopoietic stem cells. […] Other protein kinases such as SYK, BRAF, p38 (p38MAPK), PDGFRα/β, FGFR1, RET, FLT4, Tie2 have also been linked to leukemia. […] Thus, it was tested if HSN286 and analogs were also targeting kinases that play critical roles in AML. […] (Table 9). The inhibition of the Src-kinase family could be important clinically because these kinases are downstream of FLT3. In the event of FLT3 mutation, the inhibition of the Src-family kinases could still lead to proliferation inhibition.

The target of the next experiment is FAK (Homo sapiens (Human), UniProt Q05397). The experiment in a line: DiscoverX Kd Elect binding. As for the experimental part:
as §1

The target in a further experiment is FGR (Homo sapiens (Human), UniProt P09769). Nature of the experiment: DiscoverX Kd Elect binding. As for the experimental part: as §1
The next experiment concerns the target FYN (Homo sapiens (Human), UniProt P06241). Nature of the experiment: DiscoverX Kd Elect binding. As for the experimental part: as §1
In a further experiment the target is HCK (Homo sapiens (Human), UniProt P08631). The experiment in a line: DiscoverX Kd Elect binding. As for the experimental part:
as §1

A further experiment addresses LYN (Homo sapiens (Human), UniProt P07948). Nature of the experiment: DiscoverX Kd Elect binding. As for the experimental part:
as §1

The next experiment deals with PIK3CA (Homo sapiens (Human), UniProt P42336). Nature of the experiment: DiscoverX Kd Elect binding. As for the experimental part:
as §1

The target of another experiment is PIM1 (Homo sapiens (Human), UniProt P11309). The experiment in a line: DiscoverX Kd Elect binding. As for the experimental part:
as §1

A further experiment concerns the target PLK1 (Homo sapiens (Human), UniProt P53350). Nature of the experiment: DiscoverX Kd Elect binding. As for the experimental part:
as §1

The target in experiment [1] is T1, SRC (Homo sapiens (Human), UniProt P12931). The experiment in a line: DiscoverX Kd Elect binding. As for the experimental part: as §1
Experiment [2] addresses T1, SRC. Nature of the experiment: Inhibition of kinase enzymatic activity (IC50). Format: biochemical.
The next experiment deals with DNA-PK (Homo sapiens (Human), UniProt P78527). The experiment in a line: Reaction Biology HotSpot kinase assay. The conditions noted are these: 500 nM compound; read-out: Percentage kinase inhibition DNA-PK. Type of experiment: biochemical. The method in brief: (§2)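 Buffer 20 mM HEPES pH 7.5 / 10 mM MgCl2 / 1 mM EGTA / 0.02% Brij35 / 0.02 mg/mL BSA / 0.1 mM Na3VO4 / 2 mM DTT / 1% DMSO. Cpd 500 nM, 20 min. [γ-33P]ATP mix at 100 μM, 2 h RT. P81 spotting; % activity remaining vs DMSO.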

The target in another experiment is DAPK1 (Homo sapiens (Human), UniProt P53355). The experiment in a line: Reaction Biology HotSpot kinase assay. Type of experiment: biochemical. The settings on record: 500 nM compound; read-out: Percentage kinase inhibition DAPK1. The gist of the method: as §2
The target of the next experiment is FGFR2 (Homo sapiens (Human), UniProt P21802). Nature of the experiment: Reaction Biology HotSpot kinase assay. Format: biochemical. The conditions noted are these: 500 nM compound; read-out: Percentage kinase inhibition FGFR2. The method in brief: as §2
Another experiment deals with FGFR3 (Homo sapiens (Human), UniProt P22607). The experiment in a line: Reaction Biology HotSpot kinase assay. Format: biochemical. The settings on record: 500 nM compound; read-out: Percentage kinase inhibition FGFR3. The gist of the method:
as §2

The target of another experiment is FGFR4 (Homo sapiens (Human), UniProt P22455). Nature of the experiment: Reaction Biology HotSpot kinase assay. Type of experiment: biochemical. The conditions noted are these: 500 nM compound; read-out: Percentage kinase inhibition FGFR4. The method in brief:
as §2

The next experiment has as its target MEKK2 (Homo sapiens (Human), UniProt Q9Y2U5). Nature of the experiment: Reaction Biology HotSpot kinase assay. Format: biochemical. The settings on record: 500 nM compound; read-out: Percentage kinase inhibition MEKK2. The gist of the method:
as §2

In another experiment the target is PDGFRb (Homo sapiens (Human), UniProt P09619). The experiment in a line: Reaction Biology HotSpot kinase assay. The settings on record: 500 nM compound; read-out: Percentage kinase inhibition PDGFRb. Type of experiment: biochemical. The gist of the method: as §2
The target of another experiment is RIPK2 (Homo sapiens (Human), UniProt O43353). Nature of the experiment: Reaction Biology HotSpot kinase assay. Format: biochemical. The conditions noted are these: 500 nM compound; read-out: Percentage kinase inhibition RIPK2. The method in brief: as §2
The target of another experiment is RIPK3 (Homo sapiens (Human), UniProt Q9Y572). The experiment in a line: Reaction Biology HotSpot kinase assay. Format: biochemical. The settings on record: 500 nM compound; read-out: Percentage kinase inhibition RIPK3. The method in brief: as §2
A further experiment has as its target RIPK4 (Homo sapiens (Human), UniProt P57078). Nature of the experiment: Reaction Biology HotSpot kinase assay. Format: biochemical. The conditions noted are these: 500 nM compound; read-out: Percentage kinase inhibition RIPK4. The gist of the method: as §2
The subject of another experiment is MV-4-11. The experiment in a line: Proliferation inhibition at single concentration (CellTiter-Blue). Format: cell-based. The settings on record: 1 μM compound. A general note: Alamar Blue is a resazurin reagent that responds to reducing activity.
A further experiment deals with HCT116. The description is as above. Format: cell-based. The settings on record: 1 μM compound.

T1 sequence (P12931 whole entry, looked up): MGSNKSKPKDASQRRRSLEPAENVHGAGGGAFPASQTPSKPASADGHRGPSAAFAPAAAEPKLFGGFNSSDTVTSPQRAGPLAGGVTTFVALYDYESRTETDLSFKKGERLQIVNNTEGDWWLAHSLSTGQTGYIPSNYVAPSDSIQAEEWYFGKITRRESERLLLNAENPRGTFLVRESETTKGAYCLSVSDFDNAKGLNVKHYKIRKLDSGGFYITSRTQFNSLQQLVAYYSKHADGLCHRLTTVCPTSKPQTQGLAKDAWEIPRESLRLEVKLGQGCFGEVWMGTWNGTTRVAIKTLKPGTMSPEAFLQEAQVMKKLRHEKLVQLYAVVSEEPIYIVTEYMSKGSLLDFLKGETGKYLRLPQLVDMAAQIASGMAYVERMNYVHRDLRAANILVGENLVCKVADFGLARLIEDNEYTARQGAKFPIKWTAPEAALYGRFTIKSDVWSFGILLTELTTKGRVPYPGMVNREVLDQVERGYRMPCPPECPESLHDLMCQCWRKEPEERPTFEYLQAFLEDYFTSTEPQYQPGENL
Sequence of FYN (P06241 whole entry): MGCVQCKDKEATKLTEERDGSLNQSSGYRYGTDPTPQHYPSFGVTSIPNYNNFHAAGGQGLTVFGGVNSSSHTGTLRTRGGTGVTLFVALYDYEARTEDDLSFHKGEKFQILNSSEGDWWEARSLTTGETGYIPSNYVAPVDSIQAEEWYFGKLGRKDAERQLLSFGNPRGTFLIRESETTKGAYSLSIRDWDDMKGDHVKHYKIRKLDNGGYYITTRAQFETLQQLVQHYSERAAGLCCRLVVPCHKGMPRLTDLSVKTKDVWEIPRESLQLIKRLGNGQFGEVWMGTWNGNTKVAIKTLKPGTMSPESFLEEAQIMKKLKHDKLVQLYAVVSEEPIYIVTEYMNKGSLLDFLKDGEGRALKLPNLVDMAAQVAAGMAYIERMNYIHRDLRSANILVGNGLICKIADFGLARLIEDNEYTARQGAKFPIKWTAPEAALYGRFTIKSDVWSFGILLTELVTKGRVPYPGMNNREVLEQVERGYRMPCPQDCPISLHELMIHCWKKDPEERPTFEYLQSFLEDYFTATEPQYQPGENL
Sequence of PIM1 (P11309 whole entry): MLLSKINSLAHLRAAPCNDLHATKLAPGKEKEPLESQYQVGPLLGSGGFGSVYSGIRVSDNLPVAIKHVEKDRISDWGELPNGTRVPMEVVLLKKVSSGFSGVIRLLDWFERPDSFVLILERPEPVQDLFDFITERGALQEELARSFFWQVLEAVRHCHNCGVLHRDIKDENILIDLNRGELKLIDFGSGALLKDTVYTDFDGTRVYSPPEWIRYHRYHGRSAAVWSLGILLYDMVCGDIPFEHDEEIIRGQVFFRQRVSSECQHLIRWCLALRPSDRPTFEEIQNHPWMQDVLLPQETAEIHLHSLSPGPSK
Sequence of LYN (P07948 whole entry): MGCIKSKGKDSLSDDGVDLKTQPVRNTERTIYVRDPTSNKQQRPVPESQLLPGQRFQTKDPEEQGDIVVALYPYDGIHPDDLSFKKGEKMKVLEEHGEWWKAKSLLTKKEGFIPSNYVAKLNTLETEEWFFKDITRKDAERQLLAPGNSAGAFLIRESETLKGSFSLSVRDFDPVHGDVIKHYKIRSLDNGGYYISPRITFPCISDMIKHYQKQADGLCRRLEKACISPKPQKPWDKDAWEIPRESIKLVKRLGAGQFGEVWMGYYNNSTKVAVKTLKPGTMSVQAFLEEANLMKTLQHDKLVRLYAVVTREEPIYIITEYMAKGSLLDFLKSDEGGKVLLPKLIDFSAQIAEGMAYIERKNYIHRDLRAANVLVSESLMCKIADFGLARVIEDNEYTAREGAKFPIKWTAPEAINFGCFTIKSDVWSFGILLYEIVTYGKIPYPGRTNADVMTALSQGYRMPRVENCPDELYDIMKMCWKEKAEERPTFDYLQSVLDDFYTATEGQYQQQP
Sequence of FLT3 (ITD, F691L) (P36888 whole entry, looked up, stated change not applied): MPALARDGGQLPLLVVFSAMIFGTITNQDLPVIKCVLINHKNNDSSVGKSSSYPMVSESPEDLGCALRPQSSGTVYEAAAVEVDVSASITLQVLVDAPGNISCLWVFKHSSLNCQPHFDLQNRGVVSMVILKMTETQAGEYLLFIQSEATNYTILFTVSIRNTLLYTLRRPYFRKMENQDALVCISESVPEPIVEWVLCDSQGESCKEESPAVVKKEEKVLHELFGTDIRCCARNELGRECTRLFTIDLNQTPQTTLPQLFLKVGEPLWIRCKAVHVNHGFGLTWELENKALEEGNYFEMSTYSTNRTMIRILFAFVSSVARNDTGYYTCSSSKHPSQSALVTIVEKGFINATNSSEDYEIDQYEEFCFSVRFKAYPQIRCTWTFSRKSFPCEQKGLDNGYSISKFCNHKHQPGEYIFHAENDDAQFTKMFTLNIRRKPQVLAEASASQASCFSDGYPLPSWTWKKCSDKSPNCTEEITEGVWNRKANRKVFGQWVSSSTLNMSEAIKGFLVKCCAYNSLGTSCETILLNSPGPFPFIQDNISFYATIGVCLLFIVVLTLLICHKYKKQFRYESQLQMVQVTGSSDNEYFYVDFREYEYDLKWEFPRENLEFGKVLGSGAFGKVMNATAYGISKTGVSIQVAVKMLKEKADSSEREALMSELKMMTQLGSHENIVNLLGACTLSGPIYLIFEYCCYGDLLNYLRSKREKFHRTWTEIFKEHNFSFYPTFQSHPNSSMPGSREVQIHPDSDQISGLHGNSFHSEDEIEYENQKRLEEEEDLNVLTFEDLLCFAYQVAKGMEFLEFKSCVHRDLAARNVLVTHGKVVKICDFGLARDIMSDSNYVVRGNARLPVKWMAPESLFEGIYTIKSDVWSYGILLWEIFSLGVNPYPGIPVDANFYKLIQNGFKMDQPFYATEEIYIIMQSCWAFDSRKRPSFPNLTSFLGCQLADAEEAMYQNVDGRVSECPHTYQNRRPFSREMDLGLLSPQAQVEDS
Sequence of DAPK1 (P53355 whole entry): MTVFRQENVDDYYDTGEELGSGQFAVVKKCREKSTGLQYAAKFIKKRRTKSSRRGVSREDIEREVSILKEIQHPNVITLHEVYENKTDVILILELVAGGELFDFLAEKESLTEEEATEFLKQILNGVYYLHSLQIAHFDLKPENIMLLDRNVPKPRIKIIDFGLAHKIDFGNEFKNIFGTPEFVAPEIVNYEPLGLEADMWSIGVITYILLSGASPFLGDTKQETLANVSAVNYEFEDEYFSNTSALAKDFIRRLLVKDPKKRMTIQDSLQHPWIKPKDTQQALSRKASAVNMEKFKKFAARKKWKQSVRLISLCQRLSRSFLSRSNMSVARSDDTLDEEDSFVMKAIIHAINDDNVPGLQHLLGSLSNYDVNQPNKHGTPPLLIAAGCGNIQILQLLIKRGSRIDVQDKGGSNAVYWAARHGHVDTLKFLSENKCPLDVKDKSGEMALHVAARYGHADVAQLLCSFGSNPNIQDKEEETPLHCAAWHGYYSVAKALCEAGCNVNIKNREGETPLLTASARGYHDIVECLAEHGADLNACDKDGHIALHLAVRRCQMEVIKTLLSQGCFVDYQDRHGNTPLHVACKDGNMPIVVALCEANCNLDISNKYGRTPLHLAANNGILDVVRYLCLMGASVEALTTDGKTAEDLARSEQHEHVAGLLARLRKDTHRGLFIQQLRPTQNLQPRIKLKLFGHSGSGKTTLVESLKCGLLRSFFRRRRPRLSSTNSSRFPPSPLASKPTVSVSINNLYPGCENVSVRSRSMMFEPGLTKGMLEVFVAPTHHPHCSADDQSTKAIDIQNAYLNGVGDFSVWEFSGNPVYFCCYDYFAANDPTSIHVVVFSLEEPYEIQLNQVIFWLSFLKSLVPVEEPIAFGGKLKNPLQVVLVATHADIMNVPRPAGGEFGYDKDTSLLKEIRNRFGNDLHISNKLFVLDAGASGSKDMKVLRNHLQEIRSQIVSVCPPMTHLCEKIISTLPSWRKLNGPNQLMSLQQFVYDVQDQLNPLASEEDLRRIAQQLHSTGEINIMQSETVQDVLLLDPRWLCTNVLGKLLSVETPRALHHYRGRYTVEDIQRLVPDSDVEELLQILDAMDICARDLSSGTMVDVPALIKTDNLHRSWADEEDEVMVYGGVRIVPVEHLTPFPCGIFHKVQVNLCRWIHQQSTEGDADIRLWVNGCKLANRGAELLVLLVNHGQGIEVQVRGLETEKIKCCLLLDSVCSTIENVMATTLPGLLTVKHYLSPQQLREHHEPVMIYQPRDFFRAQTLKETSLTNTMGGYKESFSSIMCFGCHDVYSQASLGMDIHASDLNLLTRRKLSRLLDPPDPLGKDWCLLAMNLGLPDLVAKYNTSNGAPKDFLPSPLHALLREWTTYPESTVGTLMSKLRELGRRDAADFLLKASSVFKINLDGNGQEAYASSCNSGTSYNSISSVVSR
Sequence of BLK (P51451 whole entry): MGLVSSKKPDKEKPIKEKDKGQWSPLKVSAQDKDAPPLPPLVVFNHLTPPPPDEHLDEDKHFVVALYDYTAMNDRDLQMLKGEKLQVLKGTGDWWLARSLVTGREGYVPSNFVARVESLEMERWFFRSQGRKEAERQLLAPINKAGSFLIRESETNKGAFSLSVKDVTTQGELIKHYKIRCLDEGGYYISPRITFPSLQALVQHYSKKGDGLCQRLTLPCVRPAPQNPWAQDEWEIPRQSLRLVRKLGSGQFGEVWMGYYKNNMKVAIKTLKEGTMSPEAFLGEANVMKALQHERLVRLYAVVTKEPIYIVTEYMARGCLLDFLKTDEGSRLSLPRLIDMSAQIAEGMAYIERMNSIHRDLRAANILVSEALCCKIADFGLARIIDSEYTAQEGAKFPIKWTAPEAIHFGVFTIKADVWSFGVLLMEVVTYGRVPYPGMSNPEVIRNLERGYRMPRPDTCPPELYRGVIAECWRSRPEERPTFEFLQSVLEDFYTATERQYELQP

In the case of `Cc1ccc(C(=O)Nc2ccc(CN3CCN(C)CC3)c(C(F)(F)F)c2)cc1C#Cc1cnc(N)c2ncccc12` [HSN356, 3-((8-amino-1,7-naphthyridin-5-yl)ethynyl)-4-methyl-N-(4-((4-methylpiperazin-1-yl)methyl)-3-(trifluoromethyl)phenyl)benzamide], the Kd on FLT3 (ITD, F691L) was 28 nM; on BLK, 1.2 nM; on FAK it was 4700 nM; at FGR, 7.9 nM; on FYN, 38 nM; on HCK, 2.5 nM. Also, the Kd on LYN was 5.4 nM; at PIK3CA it was over 30000 nM; at PIM1 it was 19000 nM; on PLK1 it was 9600 nM; on SRC [1], 15 nM. This molecule had an IC50 on SRC [2] of 14.9 nM.
`COc1cc2nc(N)nc(C#Cc3cc(C(=O)Nc4ccc(CN5CCN(C)CC5)c(C(F)(F)F)c4)ccc3C)c2cc1OC` [HSN325]: the inhibition at 0.5 µM on DNA-PK is 0%.
For the molecule `Cc1ccc(C(=O)Nc2ccc(CN3CCN(C)CC3)c(C(F)(F)F)c2)cc1C#Cc1cc(N)nc2ccccc12` [HSN285], the inhibition at 0.5 µM on DAPK1 was found to be 14%; at FGFR2 it was 0%; on FGFR3 it was 0%; at FGFR4 it was 0%; at MEKK2, 0%; on PDGFRb, 46%. The inhibition at 0.5 µM on RIPK2 was found to be 0%; on RIPK3 it was 0%; at RIPK4, 25%.
As for `CN(C)CC(O)CNC(=O)c1ccc(C#Cc2c(N)ncc3ccc(Cl)cc23)cc1` (stereo not drawn) [HSM1702], in the experiment on MV-4-11, the “Percent inhibition of proliferation MV-4-11” value is 99%. Also, in the experiment with HCT116, the “Percent inhibition of proliferation HCT116” value is recorded as 33%.
In the case of `Cc1ccc(C(=O)Nc2ccc(CN3CCN(C)CC3)c(C(F)(F)F)c2)cc1C#Cc1c(N)ncc2ccc(Cl)cc12` [HSN286], the inhibition at 0.5 µM at DAPK1 was determined as 9%; on DNA-PK it was 0%; at FGFR2 it was 96%; at FGFR3 it was 88%; at FGFR4, 82%; at MEKK2 it was 52%. Also, the inhibition at 0.5 µM on PDGFRb came out at 96%; on RIPK2 it was 25%; on RIPK3, 96%; on RIPK4 it was 32%. Moreover, the Kd is 110 nM on FLT3 (ITD, F691L); 3.9 nM at BLK; 5100 nM on FAK; 7 nM at FGR; 28 nM on FYN; 3.6 nM at HCK. Besides, the Kd was 11 nM at LYN; 26000 nM at PIK3CA; 11000 nM at PIM1; over 30000 nM at PLK1; 16 nM on SRC [1]. In addition, at SRC [2], the IC50 was determined as 4.5 nM. In addition, the inhibition at 1 µM in the experiment with MV-4-11 (Homo sapiens, MV4-11, read-out: Percent inhibition of proliferation MV-4-11) came to 99%; in the experiment with HCT116 (Homo sapiens, HCT-116, read-out: Percent inhibition of proliferation HCT116), 100%.
